“Also recorded” adds a separate entry of the source.
Tests used:
[1] = test system: HCC-driven tumor xenograft; assay: HCC tumor xenograft, alone or with sorafenib; format: in vivo, athymic nude mice; details: in combination with sorafenib, I.P.
Method: FIGS. 48A-48C. Biological effects of PDZ1i in vivo in melanoma, HCC and PC. FIG. 48A) Compounds were administered I.P. 6 times within first two weeks following inoculation (I.V. injection) of B16 cells in C57BL/6 mice to evaluate the anti-metastatic efficacy. FIG. 48B) HCC-driven tumor xenograft was established in athymic nude mice. Compound alone or in combination with Sorafenib were given through I.P. Tumor volumes were considered as an end point of this study. FIG. 48C) Hi-Myc, a mouse model for spontaneous prostate cancer either received the compound or vehicle at the age of 8 weeks (immediate after onset of disease) for total 9 injections (3/week). After 16 weeks from the first injection, prostate were collected and pathologically evaluated. Representative photomicrographs (Left panel) and H and E stained slides (Right panel) from prostate were presented.

[2] = biological target: MDA-9/IGF-1R interactions (Homo sapiens, UniProt O00560); assay: co-immunoprecipitation in DU145 and ARCaPM cells; format: cell-based; details: PDZ1i for 6 h
Sequence of MDA-9/IGF-1R interactions (O00560 2-298 limits assumed): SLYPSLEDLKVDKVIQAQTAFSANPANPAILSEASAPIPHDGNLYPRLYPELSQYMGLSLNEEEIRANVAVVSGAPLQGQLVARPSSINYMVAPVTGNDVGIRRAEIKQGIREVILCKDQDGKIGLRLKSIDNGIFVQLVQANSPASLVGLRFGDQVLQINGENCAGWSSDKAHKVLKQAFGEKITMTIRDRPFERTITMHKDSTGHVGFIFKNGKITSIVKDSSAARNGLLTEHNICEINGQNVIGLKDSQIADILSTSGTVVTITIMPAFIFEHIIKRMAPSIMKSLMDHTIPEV
Method: FIGS. 17A-17H. Effect of PDZ1i on invasion, MDA-9/IGF-R1 interaction and IGF-R1, STAT3 and SRC phosphorylation. FIG. 17A) Different cancer cells (25,000 cells/well) from various anatomic origins were pre-treated with either DMSO (vehicle) or PDZ1i (dose as indicated) and invasion ability was assayed using modified Boyden Chamber according to the manufacturer's instructions. Photomicrographs were taken at 10× magnification and quantification of the results of three independent experiments is provided in the graphs. The data presents mean±S.D. B) The designated cells were treated with DMSO or PDZ1i and invasion properties were determined using a modified Boyden Chamber assay (BD bioscience). RWPE-1 mda-9: mda-9 transiently overexpressing cell line. […] FIG. 17E) Cells were growth starved for 24 h and treated with either DMSO or PDZ1i (dose indicated in μM) for 6 h. Cells were treated with human recombinant IGFBP-2 (hIGFBP-2, 10 ng/ml) for 2 h, lysates were prepared and western blot analysis was conducted with specific antibodies. FIG. 17F) Cells were serum-starved for 24 h and treated with either DMSO or PDZ1i (20 μM) for 6 h. […] Cells were treated with human recombinant […] (hIGFBP-2, 1 ng/ml) for 2 h, cell lysates were prepared and analyzed by western blotting. […]
Next, the effect of PDZ1i on MDA-9 and IGF-1R interactions was determined. […]

U1242-Luc cells = assay: intracranial U1242-Luc tumors, PDZ1i with or without radiation; format: in vivo, nude mice
Method: FIGS. 14A-14F. PDZ1i treatment combined with radiation in an in vivo model of GBM. FIG. 14A. U1242-luc cells were injected intracranially into nude mice. After 7 days mice were randomized to 4 groups, and mice receiving therapy were treated on days 11-14 as pictured. FIG. 14B. Kaplan-Meier survival curves for each treatment group. Median survival as listed. Two brain tissue samples were isolated for each group, sectioned, and H and E staining is shown. FIG. 14C, DMSO treated mice, FIG. 14D, PDZ1i treated mice, FIG. 14E, mice treated with radiation and DMSO; FIG. 14F, mice treated with radiation and PDZ1i.
PDZ1i combined with radiation extends survival and reduces GBM invasion in vivo. We next investigated the combination of PDZ1i with radiotherapy in vivo. U1242-Luc cells were injected intracranially under anesthesia and formed tumors, confirmed by imaging at 7 d post-injection. At this point, mice were randomized to 4 groups: DMSO treatment, PDZ1i treatment (30 mg/kg), DMSO+IR, and PDZ1i+IR. Treatment began on 11 d post-injection and mice receiving radiation were treated with 2.5 Gy for 4 consecutive d. PDZ1i was administered 2 h prior to radiation treatment on each of the 4 treatment d (FIG. 14A). […] To investigate this, brain tissue sections were collected and H & E stains were analyzed. […]

Question: What does the source list for `Cc1cc(NC(=O)c2nc3[nH]c4c(c(=O)n3n2)CCC4)c(C)cc1NC(=O)CCc1nnc(-c2ccccc2)o1` [113B7, N-(2,5-dimethyl-4-(3-(5-phenyl-1,3,4-oxadiazol-2-yl)propanamido)phenyl)-8-oxo-5,6,7,8-tetrahydro-4H-cyclopenta[d][1,2,4]triazolo[1,5-a]pyrimidine-2-carboxamide]?
Answer: HCC tumor growth [1]: synergistically inhibited HCC growth; also recorded: inhibit HCC tumor growth; MDA-9/IGF-1R interaction [2]: selectively inhibits; average survival (U1242-Luc cells; PDZ1i 30 mg/kg 2 h prior to IR, 2.5 Gy for 4 consecutive d): 78.8 days; average survival (U1242-Luc cells; PDZ1i 30 mg/kg alone): 54.7 days
